Laboratory results reported in PMC9030381, “The Discovery of Potent SHP2 Inhibitors with Anti-Proliferative Activity in Breast Cancer Cell Lines” (International Journal of Molecular Sciences, 2022).

What was measured:
[1] = system: MCF-7; assay: Cell viability assay (CellTiter 96 AQueous One); assay type: cell-based; settings: at 20 μM, 48 h
Experimental: (§1) The percentage of viable cells was determined using The CellTiter 96® AQueous One Solution Cell Proliferation Assay (Promega–Cat G3580, Madison, WI, USA). Briefly, 5 × 10^3 cells/well of MCF-7 or MDA-MB-231 were plated in a 96 well culture plate in a total volume of 100 µL/well. The next day, cells were treated with 0.16, 0.8, 4, and 20 µM of NSC 13030, 24198, 57774, 137420, or DMSO as control. After 48 h, 20 µL of CellTiter 96 AQuoeus one solution reagent was added in each well, and incubated for 4 h in a CO2 incubator at 37 °C. The percentage of living cells was calculated by dividing the OD (490 nm) of treated cells by the same concentration of DMSO controls. All conditions were done in triplicates.

[2] = target: T1, SHP2 (Homo sapiens, UniProt Q06124); assay: Enzymatic SHP2 inhibition assay (pNPP phosphatase activity); assay type: biochemical; settings: for inhibition at 100 µM: read-out: inhibition of SHP2 enzyme; for IC50: pNPP substrate, read-out: SHP2 Obtained IC50
T1 construct: purchased BPS Bioscience, Inc., San Diego, CA, USA
T1 sequence (Q06124 1-593): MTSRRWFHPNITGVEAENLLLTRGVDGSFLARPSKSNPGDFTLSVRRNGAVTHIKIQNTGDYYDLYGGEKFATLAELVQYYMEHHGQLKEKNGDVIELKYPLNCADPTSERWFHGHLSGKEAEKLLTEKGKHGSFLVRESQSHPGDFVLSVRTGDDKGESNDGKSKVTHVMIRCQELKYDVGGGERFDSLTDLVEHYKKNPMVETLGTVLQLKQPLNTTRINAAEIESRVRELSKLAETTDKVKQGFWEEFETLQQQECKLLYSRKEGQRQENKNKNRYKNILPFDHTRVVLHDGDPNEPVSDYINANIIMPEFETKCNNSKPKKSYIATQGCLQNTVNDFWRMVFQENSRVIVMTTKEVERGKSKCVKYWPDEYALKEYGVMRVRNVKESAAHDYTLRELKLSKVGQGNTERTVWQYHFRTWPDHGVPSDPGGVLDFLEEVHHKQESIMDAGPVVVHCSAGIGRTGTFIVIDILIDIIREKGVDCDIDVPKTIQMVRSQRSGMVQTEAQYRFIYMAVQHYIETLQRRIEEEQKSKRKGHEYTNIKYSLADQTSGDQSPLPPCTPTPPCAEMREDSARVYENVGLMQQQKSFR
Experimental: Phosphatase Activity Assay (PTP) using p-nitrophenyl phosphate (pNPP) as a substrate was carried out in a total volume of 100 µL. This was done by monitoring the increase in phosphatase absorbance at 405 nm in the presence of the substrate using 96-well microplate reader (Thermo Scientific Multiskan GO, Waltham, MA, USA). The standard reaction mixture consisted of PTP buffer (100 mM NaCl, 2 mM EDTA, 50 mM HEPES, 3 mM DTT, pH 7.4), 100 nM of Shp2 (BPS Bioscience, Inc., San Diego, CA, USA), and 1 mM of pNPP incubated for 90 min at 30 °C. The enzymatic reaction was stopped by the addition of 50 µL of 5 M NaOH. For inhibition reaction, SHP2 enzyme was preincubated with 100 µM compound or their vehicle (DMSO) for 5 min at 37 °C, prior to the incubation with pNPP substrate for 90 min at 30 °C. The same method was used to calculate IC50 values using GraphPad Prism software 8.0 (San Diego, CA, USA). Wells with SHP2 substrate and without compounds were considered controls (enzyme activity is 100%).

[3] = system: MCF-7; assay: Cell proliferative assay (DAPI cell count); assay type: cell-based; settings: at 20 μM, 48 h, in comparison with the vehicle
Experimental: (§2) The 5 × 10^3 cells/well of MCF-7 or MDA-MB-231cell-lines were seeded in 96 well plates. The next day, cells were treated with 0.16, 0.8, 4, and 20 µM of NSC 13030, 24198, 57774, 137420, or DMSO (Sigma-Aldrich–Cat D9170, St. Louis, MO, USA) as control. After 48 h of incubation, cells were stained with DAPI (Thermo Fischer–Cat R37606, Waltham, MA, USA) and images of the entire wells were taken with a 20× objective and a DAPI filter cube using Lionheart FX automated microscope. The image analysis and cell counts were done using Gen5 software. All conditions were done in triplicates.

[4] = target: SHP1 (Homo sapiens, UniProt P29350); assay: Enzymatic SHP1 inhibition assay (selectivity); assay type: biochemical; settings: read-out: SHP1 Obtained IC50
Sequence of SHP1 (P29350 whole entry): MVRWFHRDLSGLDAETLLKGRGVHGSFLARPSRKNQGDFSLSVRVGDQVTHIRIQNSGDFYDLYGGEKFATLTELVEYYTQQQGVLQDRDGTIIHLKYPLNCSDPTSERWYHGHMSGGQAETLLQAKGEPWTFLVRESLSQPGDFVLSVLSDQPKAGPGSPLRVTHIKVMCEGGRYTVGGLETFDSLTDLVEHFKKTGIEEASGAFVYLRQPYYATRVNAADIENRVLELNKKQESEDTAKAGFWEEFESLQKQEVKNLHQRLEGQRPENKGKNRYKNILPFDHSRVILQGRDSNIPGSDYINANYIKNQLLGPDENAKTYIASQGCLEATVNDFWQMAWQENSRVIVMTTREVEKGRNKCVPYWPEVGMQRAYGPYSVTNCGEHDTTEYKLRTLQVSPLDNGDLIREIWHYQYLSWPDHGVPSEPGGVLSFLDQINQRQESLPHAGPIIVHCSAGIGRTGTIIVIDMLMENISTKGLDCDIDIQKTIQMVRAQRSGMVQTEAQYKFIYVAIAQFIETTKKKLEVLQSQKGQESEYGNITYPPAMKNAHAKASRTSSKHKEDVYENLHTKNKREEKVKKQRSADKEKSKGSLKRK

[5] = system: MDA-MB-231; assay: Cell viability assay (CellTiter 96 AQueous One); assay type: cell-based; settings: at 20 μM, 48 h
Experimental: as §1

[6] = system: MDA-MB-231; assay: Cell proliferative assay (DAPI cell count); assay type: cell-based; settings: at 20 μM, 48 h, in comparison with the vehicle
Experimental: as §2

SMILES | reduction of MCF-7 viability [1] | inhibition at 100 µM ([2]; at 100 μM compound) | IC50 [2] | reduction of MCF-7 proliferation [3] | IC50 [4] | reduction of MDA-MB-231 viability [5] | selectivity, inhibition activity towards SHP2 over SHP1 ([2]; SHP2 over SHP1) | inhibition of SHP2 enzyme ([2]; at 100 μM compound, 100 µM) | reduction of MDA-MB-231 proliferation [6]
COc1ccc2nc3cc(Cl)ccc3c(SC(CC(=O)O)C(=O)O)c2c1 (centres unmarked) [Compound 13030] | 64.4% | 98% | 3.2 µM | 42.1% | 85.4 µM | – | – | – | –
O=C(O)CSC(Nc1ccccc1C(=O)O)c1ccccc1 (centres unmarked) [Compound 24198] | 65.2% | 99% | 1.9 µM | 34.7% | 14.3 µM | – | – | – | –
Cc1c2oc3c(C)ccc(C(=O)O)c3nc-2c(C(=O)O)c(N)c1=O [Compound 57774] | 65.8% | – | 0.8 µM | 74.5% | 164 µM | 36.2% | 200 fold | complete SHP2 inhibition | 64%
O=C(c1ccccc1)c1ccc2c(Cl)ccc(C(=O)O)c2c1C(=O)O [Compound 137420] | – | 71% | 33 µM | – | – | – | – | – | –
Cc1ccc(C(=O)Nc2ccc(S(=O)(=O)O)c3cc(S(=O)(=O)O)cc(S(=O)(=O)O)c23)cc1NC(=O)c1cccc(NC(=O)Nc2cccc(C(=O)Nc3cc(C(=O)Nc4ccc(S(=O)(=O)O)c5cc(S(=O)(=O)O)cc(S(=O)(=O)O)c45)ccc3C)c2)c1 [Suramin, reference compound] | – | 79% | 4.5 µM | – | 15.4 µM | – | – | – | –
